Test results reported in US20220389061A1, “IMMUNOMODULATORS” (priority 2019, published 2022).
Starred links: 1 amine or outer side, 2 acyl side, 3 side chain; linkers in the order of their positions; H or OH if unused. Positions of bridges follow the written chain, without caps; N, C: chain ends. Non-standard residues stand in square brackets, D forms with d. Residues, ends and D or L forms follow the SMILES beside them. Groups on a side chain read outwards from the residue. *: point of attachment. Trp(1-CH2CO2Me) = COC(=O)Cn1cc(C[C@H](N)C(=O)O)c2ccccc21; Trp(1-CH2COOH) = N[C@@H](Cc1cn(CC(=O)O)c2ccccc12)C(=O)O; Benzoyl(4-F,3-CF3) = O=C(c1ccc(F)c(C(F)(F)F)c1)*; X73 = FC(F)(F)c1cc(NC(=S)*)cc(C(F)(F)F)c1; X65 = CC(C)(C)OC(=O)Nc1ccc(NC(=S)*)cc1; X88 = Cc1cc([N+](=O)[O-])ccc1NC(=S)*; X1 = S=C(Nc1ccc2c(c1)Cc1ccccc1-2)*; X75 = S=C(Nc1ccc(C2CC2)c2ccccc12)*; Hyp = O=C(O)[C@@H]1C[C@@H](O)CN1; X19 = CCOC(=O)c1ccc(NC(=S)*)cc1; X84 = COc1cc(NC(=S)*)cc(OC)c1OC; X94 = S=C(Nc1ccc(N2CCOCC2)nc1)*; pNA = O=[N+]([O-])c1ccc(N*)cc1; NMeNle = CCCC[C@H](NC)C(=O)O; X12 = S=C(Nc1ccc2ccccc2c1)*; NMeA = CN[C@@H](C)C(=O)O; Dab = NCC[C@H](N)C(=O)O; Dap = NC[C@H](N)C(=O)O; CO = O=C([*:1])[*:2]

What follows are compounds tested against T1, PD-1/PD-L1 (Homo sapiens, UniProt Q9NZQ7) (assay: PD-1/PD-L1 Homogenous Time-Resolved Fluorescence (HTRF) binding assay). Details: not given.
T1 construct: TVMV protease site linker (C); made in house; host or cells: HEK293T cells
T1 sequence (Q9NZQ7 18-239): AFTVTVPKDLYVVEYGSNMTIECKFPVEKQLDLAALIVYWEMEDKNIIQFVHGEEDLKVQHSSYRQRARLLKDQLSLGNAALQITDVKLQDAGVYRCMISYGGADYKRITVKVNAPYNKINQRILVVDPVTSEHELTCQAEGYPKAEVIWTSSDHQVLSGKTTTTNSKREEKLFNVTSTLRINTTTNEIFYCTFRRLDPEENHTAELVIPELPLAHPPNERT
Description: The ability of the compounds of formula (I) to bind to PD-L1 was investigated using a PD-1/PD-L1 Homogenous Time-Resolved Fluorescence (HTRF) binding assay.
The interaction of PD-1 and PD-L1 can be assessed using soluble, purified preparations of the extracellular domains of the two proteins. The PD-1 and PD-L1 protein extracellular domains were expressed as fusion proteins with detection tags, for PD-1, the tag was the Fc portion of Immunoglobulin (PD-1-Ig) and for PD-L1 it was the 6 histidine motif (PD-L1-His). All binding studies were performed in an HTRF assay buffer consisting of dPBS supplemented with 0.1% […] bovine serum albumin and 0.05% (v/v) Tween-20. For the h/PD-L1-His binding assay, inhibitors were pre-incubated with PD-L1-His (10 nM final) for 15 m in 4 μl of assay buffer, followed by addition of PD-1-Ig (20 nM final) in 1 μl of assay buffer and further incubation for 15 m. HTRF detection was achieved using europium crypate-labeled anti-Ig (1 nM final) and allophycocyanin (APC) labeled anti-His (20 nM final). Antibodies were diluted in HTRF detection buffer and 5 μl was dispensed on top of the binding reaction. […] Additional binding assays were established between the human proteins PD-1-Ig/PD-L2-His (20 & 5 nM, respectively) and CD80-His/PD-L1-Ig (100 & 10 nM, respectively). […]
`CCCC[C@H]1C(=O)N(C)[C@@H](CCCC)C(=O)N[C@@H](CC(C)C)C(=O)N[C@H](C(=O)NCC(N)=O)CSCC(=O)N[C@@H](Cc2ccc(O)cc2)C(=O)N(C)[C@@H](C)C(=O)N[C@@H](CC(N)=O)C(=O)N2CCC[C@H]2C(=O)N[C@@H](CNC(=O)Nc2ccc([N+](=O)[O-])cc2)C(=O)N[C@@H](CC(C)C)C(=O)N2C[C@H](O)C[C@H]2C(=O)N[C@@H](Cc2c[nH]c3ccccc23)C(=O)N[C@@H](CCNC(=O)Nc2ccc([N+](=O)[O-])cc2)C(=O)N[C@@H](Cc2cn(CC(=O)O)c3ccccc23)C(=O)N1C` [Example 1130] ({CH2CO}-Y[NMeA]NP[Dap]([CO-pNA])L[Hyp]W[Dab]([CO-pNA])[Trp(1-CH2COOH)][NMeNle][NMeNle]LCG-NH2; thioether N-14) gave an IC50 of 2 nM.

Same assay, conditions: PD-L1-His 10 nM pre-incubated with inhibitor, PD-1-Ig 20 nM; read-out: HTRF IC50
In the case of `CCCC[C@H]1C(=O)N(C)[C@@H](CCCC)C(=O)N[C@@H](CC(C)C)C(=O)N[C@H](C(=O)NCC(N)=O)CSCC(=O)N[C@@H](Cc2ccc(O)cc2)C(=O)N(C)[C@@H](C)C(=O)N[C@@H](CC(N)=O)C(=O)N2CCC[C@H]2C(=O)N[C@@H](CNC(=S)Nc2cc(C(F)(F)F)cc(C(F)(F)F)c2)C(=O)N[C@@H](CC(C)C)C(=O)N2C[C@H](O)C[C@H]2C(=O)N[C@@H](Cc2c[nH]c3ccccc23)C(=O)N[C@@H](CCNC(=S)Nc2cc(C(F)(F)F)cc(C(F)(F)F)c2)C(=O)N[C@@H](Cc2cn(CC(=O)O)c3ccccc23)C(=O)N1C` [Example 1124] ({CH2CO}-Y[NMeA]NP[Dap](X73)L[Hyp]W[Dab](X73)[Trp(1-CH2COOH)][NMeNle][NMeNle]LCG-NH2; thioether N-14), the IC50 is reported as 87 nM. With `CCCC[C@H]1C(=O)N(C)[C@@H](CCCC)C(=O)N[C@@H](CC(C)C)C(=O)N[C@H](C(=O)NCC(N)=O)CSCC(=O)N[C@@H](Cc2ccc(O)cc2)C(=O)N(C)[C@@H](C)C(=O)N[C@@H](CC(N)=O)C(=O)N2CCC[C@H]2C(=O)N[C@@H](CNC(=S)Nc2ccc([N+](=O)[O-])cc2C)C(=O)N[C@@H](CC(C)C)C(=O)N2C[C@H](O)C[C@H]2C(=O)N[C@@H](Cc2c[nH]c3ccccc23)C(=O)N[C@@H](CCN)C(=O)N[C@@H](Cc2cn(CC(=O)O)c3ccccc23)C(=O)N1C` [Example 1072] ({CH2CO}-Y[NMeA]NP[Dap](X88)L[Hyp]W[Dab][Trp(1-CH2COOH)][NMeNle][NMeNle]LCG-NH2; thioether N-14) the IC50 was 4.9 nM. With `CCCC[C@H]1C(=O)N(C)[C@@H](CCCC)C(=O)N[C@@H](CC(C)C)C(=O)N[C@H](C(=O)NCC(N)=O)CSCC(=O)N[C@@H](Cc2ccc(O)cc2)C(=O)N(C)[C@@H](C)C(=O)N[C@@H](CC(N)=O)C(=O)N2CCC[C@H]2C(=O)N[C@@H](CNC(=S)Nc2ccc(C(=O)OCC)cc2)C(=O)N[C@@H](CC(C)C)C(=O)N2C[C@H](O)C[C@H]2C(=O)N[C@@H](Cc2c[nH]c3ccccc23)C(=O)N[C@@H](CCN)C(=O)N[C@@H](Cc2cn(CC(=O)O)c3ccccc23)C(=O)N1C` [Example 1042] ({CH2CO}-Y[NMeA]NP[Dap](X19)L[Hyp]W[Dab][Trp(1-CH2COOH)][NMeNle][NMeNle]LCG-NH2; thioether N-14) the IC50 was 4 nM. `CCCC[C@H]1C(=O)N(C)[C@@H](CCCC)C(=O)N[C@@H](CC(C)C)C(=O)N[C@H](C(=O)NCC(N)=O)CSCC(=O)N[C@@H](Cc2ccc(O)cc2)C(=O)N(C)[C@@H](C)C(=O)N[C@@H](CC(N)=O)C(=O)N2CCC[C@H]2C(=O)N[C@@H](CNC(=S)Nc2ccc(N3CCOCC3)nc2)C(=O)N[C@@H](CC(C)C)C(=O)N2C[C@H](O)C[C@H]2C(=O)N[C@@H](Cc2c[nH]c3ccccc23)C(=O)N[C@@H](CCN)C(=O)N[C@@H](Cc2cn(CC(=O)O)c3ccccc23)C(=O)N1C` [Example 1058] ({CH2CO}-Y[NMeA]NP[Dap](X94)L[Hyp]W[Dab][Trp(1-CH2COOH)][NMeNle][NMeNle]LCG-NH2; thioether N-14) gave an IC50 of 4 nM. For `CCCC[C@H]1C(=O)N(C)[C@@H](CCCC)C(=O)N[C@@H](CC(C)C)C(=O)N[C@H](C(=O)NCC(N)=O)CSCC(=O)N[C@@H](Cc2ccc(O)cc2)C(=O)N(C)[C@@H](C)C(=O)N[C@@H](CC(N)=O)C(=O)N2CCC[C@H]2C(=O)N[C@@H](CNC(=S)Nc2ccc3ccccc3c2)C(=O)N[C@@H](CC(C)C)C(=O)N2C[C@H](O)C[C@H]2C(=O)N[C@@H](Cc2c[nH]c3ccccc23)C(=O)N[C@@H](CCN)C(=O)N[C@@H](Cc2cn(CC(=O)O)c3ccccc23)C(=O)N1C` [Example 3028] ({CH2CO}-Y[NMeA]NP[Dap](X12)L[Hyp]W[Dab][Trp(1-CH2COOH)][NMeNle][NMeNle]LCG-NH2; thioether N-14), the IC50 was 0.6 nM. `CCCC[C@H]1C(=O)N(C)[C@@H](CCCC)C(=O)N[C@@H](CC(C)C)C(=O)N[C@H](C(=O)NCC(N)=O)CSCC(=O)N[C@@H](Cc2ccc(O)cc2)C(=O)N(C)[C@@H](C)C(=O)N[C@@H](CC(N)=O)C(=O)N2CCC[C@H]2C(=O)N[C@@H](CNC(=O)c2ccc(F)c(C(F)(F)F)c2)C(=O)N[C@@H](CC(C)C)C(=O)N2C[C@H](O)C[C@H]2C(=O)N[C@@H](Cc2c[nH]c3ccccc23)C(=O)N[C@@H](CCNC(=O)c2ccc(F)c(C(F)(F)F)c2)C(=O)N[C@@H](Cc2cn(CC(=O)OC)c3ccccc23)C(=O)N1C` [Example 1007] ({CH2CO}-Y[NMeA]NP[Dap](Benzoyl(4-F,3-CF3))L[Hyp]W[Dab](Benzoyl(4-F,3-CF3))[Trp(1-CH2CO2Me)][NMeNle][NMeNle]LCG-NH2; thioether N-14) showed an IC50 of 32 nM. Work on `CCCC[C@H]1C(=O)N(C)[C@@H](CCCC)C(=O)N[C@@H](CC(C)C)C(=O)N[C@H](C(=O)NCC(N)=O)CSCC(=O)N[C@@H](Cc2ccc(O)cc2)C(=O)N(C)[C@@H](C)C(=O)N[C@@H](CC(N)=O)C(=O)N2CCC[C@H]2C(=O)N[C@@H](CNC(=S)Nc2ccc(C3CC3)c3ccccc23)C(=O)N[C@@H](CC(C)C)C(=O)N2C[C@H](O)C[C@H]2C(=O)N[C@@H](Cc2c[nH]c3ccccc23)C(=O)N[C@@H](CCN)C(=O)N[C@@H](Cc2cn(CC(=O)O)c3ccccc23)C(=O)N1C` [Example 3044] ({CH2CO}-Y[NMeA]NP[Dap](X75)L[Hyp]W[Dab][Trp(1-CH2COOH)][NMeNle][NMeNle]LCG-NH2; thioether N-14) yielded an IC50 of 3 nM. For `CCCC[C@H]1C(=O)N(C)[C@@H](CCCC)C(=O)N[C@@H](CC(C)C)C(=O)N[C@H](C(=O)NCC(N)=O)CSCC(=O)N[C@@H](Cc2ccc(O)cc2)C(=O)N(C)[C@@H](C)C(=O)N[C@@H](CC(N)=O)C(=O)N2CCC[C@H]2C(=O)N[C@@H](CNC(=S)Nc2ccc(C(=O)OCC)cc2)C(=O)N[C@@H](CC(C)C)C(=O)N2C[C@H](O)C[C@H]2C(=O)N[C@@H](Cc2c[nH]c3ccccc23)C(=O)N[C@@H](CCNC(=S)Nc2ccc(C(=O)OCC)cc2)C(=O)N[C@@H](Cc2cn(CC(=O)O)c3ccccc23)C(=O)N1C` [Example 1043] ({CH2CO}-Y[NMeA]NP[Dap](X19)L[Hyp]W[Dab](X19)[Trp(1-CH2COOH)][NMeNle][NMeNle]LCG-NH2; thioether N-14), the IC50 was 0.6 nM. In the case of `CCCC[C@H]1C(=O)N(C)[C@@H](CCCC)C(=O)N[C@@H](CC(C)C)C(=O)N[C@H](C(=O)NCC(N)=O)CSCC(=O)N[C@@H](Cc2ccc(O)cc2)C(=O)N(C)[C@@H](C)C(=O)N[C@@H](CC(N)=O)C(=O)N2CCC[C@H]2C(=O)N[C@@H](CNC(=S)Nc2cc(OC)c(OC)c(OC)c2)C(=O)N[C@@H](CC(C)C)C(=O)N2C[C@H](O)C[C@H]2C(=O)N[C@@H](Cc2c[nH]c3ccccc23)C(=O)N[C@@H](CCN)C(=O)N[C@@H](Cc2cn(CC(=O)O)c3ccccc23)C(=O)N1C` [Example 1065] ({CH2CO}-Y[NMeA]NP[Dap](X84)L[Hyp]W[Dab][Trp(1-CH2COOH)][NMeNle][NMeNle]LCG-NH2; thioether N-14), the IC50 is reported as 2.8 nM. For `CCCC[C@H]1C(=O)N(C)[C@@H](CCCC)C(=O)N[C@@H](CC(C)C)C(=O)N[C@H](C(=O)NCC(N)=O)CSCC(=O)N[C@@H](Cc2ccc(O)cc2)C(=O)N(C)[C@@H](C)C(=O)N[C@@H](CC(N)=O)C(=O)N2CCC[C@H]2C(=O)N[C@@H](CNC(=S)Nc2ccc(NC(=O)OC(C)(C)C)cc2)C(=O)N[C@@H](CC(C)C)C(=O)N2C[C@H](O)C[C@H]2C(=O)N[C@@H](Cc2c[nH]c3ccccc23)C(=O)N[C@@H](CCN)C(=O)N[C@@H](Cc2cn(CC(=O)O)c3ccccc23)C(=O)N1C` [Example 1040] ({CH2CO}-Y[NMeA]NP[Dap](X65)L[Hyp]W[Dab][Trp(1-CH2COOH)][NMeNle][NMeNle]LCG-NH2; thioether N-14), the IC50 was 3.9 nM. `CCCC[C@H]1C(=O)N(C)[C@@H](CCCC)C(=O)N[C@@H](CC(C)C)C(=O)N[C@H](C(=O)NCC(N)=O)CSCC(=O)N[C@@H](Cc2ccc(O)cc2)C(=O)N(C)[C@@H](C)C(=O)N[C@@H](CC(N)=O)C(=O)N2CCC[C@H]2C(=O)N[C@@H](CNC(=S)Nc2ccc3c(c2)Cc2ccccc2-3)C(=O)N[C@@H](CC(C)C)C(=O)N2C[C@H](O)C[C@H]2C(=O)N[C@@H](Cc2c[nH]c3ccccc23)C(=O)N[C@@H](CCNC(=S)Nc2ccc3c(c2)Cc2ccccc2-3)C(=O)N[C@@H](Cc2cn(CC(=O)O)c3ccccc23)C(=O)N1C` [Example 2012] ({CH2CO}-Y[NMeA]NP[Dap](X1)L[Hyp]W[Dab](X1)[Trp(1-CH2COOH)][NMeNle][NMeNle]LCG-NH2; thioether N-14) was tested, and the IC50 was 15.2 nM.
